Some test systems named below: OVCAR-5 ovarian; TK-10 renal; A549 NSCLC; HCT-15 colon; SF-295 CNS; COLO 205 colon; HCC-2998 colon; LOX IMVI melanoma; MCF7 breast; UACC-257 melanoma; PC-3 prostate; MDA-N; SNB-19 CNS; NCI-H23 lung; 786-0 renal; SF-539 CNS; MALME-3M melanoma; MOLT-4 leukemia; RPMI-8226 leukemia.
Common to all, as to assay: inhibition of tumour cell growth, NCI panel, 48 h

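Assay format: 96-well plates, 48-hour exposure. TGI: total growth inhibition.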 Some results are limits rather than exact numbers.

Take `COC(=O)C1(CCCCl)CCCN1C(=O)OC(C)(C)C` (stereo unspecified): the TGI with OVCAR-5 ovarian, in the experiment with TK-10 renal, in the experiment with A549 NSCLC, with HCT-15 colon, in the experiment with SF-295 CNS and with COLO 205 colon was above 100 µM each time. In addition, the TGI in the experiment on HCC-2998 colon, in the experiment on LOX IMVI melanoma, in the experiment with MCF7 breast, in the experiment with UACC-257 melanoma, with PC-3 prostate and in the experiment with MDA-N was above 100 µM throughout. Moreover, the TGI in the experiment on SNB-19 CNS, with NCI-H23 lung and with 786-0 renal was above 100 µM in each case.

With `CCCCCCCCCCCCCCCCOP(=O)([O-])OCC[N+](C)(C)C1CC(C)(C)N(O)C(C)(C)C1`, the TGI in the experiment on OVCAR-5 ovarian, with TK-10 renal, in the experiment on A549 NSCLC, in the experiment with HCT-15 colon, in the experiment with SF-295 CNS and with COLO 205 colon was above 100 µM throughout. The TGI with HCC-2998 colon, in the experiment on MCF7 breast, in the experiment with UACC-257 melanoma, in the experiment with PC-3 prostate, with SNB-19 CNS and in the experiment on SF-539 CNS was above 100 µM in each case. The TGI in the experiment with NCI-H23 lung, in the experiment with 786-0 renal and in the experiment on MALME-3M melanoma was above 100 µM throughout.

In the case of `C/C=C1/C=CC2c3[nH]c4ccccc4c3CCN2C1` (stereo unspecified), the TGI in the experiment with TK-10 renal, in the experiment with A549 NSCLC, in the experiment with HCT-15 colon, with SF-295 CNS, with COLO 205 colon and in the experiment on HCC-2998 colon was above 400 µM throughout. The TGI with MOLT-4 leukemia, in the experiment on LOX IMVI melanoma, in the experiment on UACC-257 melanoma, with SNB-19 CNS, in the experiment on SF-539 CNS and in the experiment on NCI-H23 lung was above 400 µM in each case. In addition, the TGI with 786-0 renal, in the experiment with RPMI-8226 leukemia and with MALME-3M melanoma was above 400 µM each time.

`CCOC(OCC)(OCC)C(Br)CC` (stereo unspecified): the TGI in the experiment on OVCAR-5 ovarian, in the experiment with TK-10 renal, in the experiment with A549 NSCLC, with SF-295 CNS, with COLO 205 colon and in the experiment on HCC-2998 colon was above 100 µM in each case. For the same compound, the TGI in the experiment with MOLT-4 leukemia, in the experiment with LOX IMVI melanoma, in the experiment on UACC-257 melanoma, in the experiment on SNB-19 CNS, in the experiment on SF-539 CNS and in the experiment with NCI-H23 lung was above 100 µM throughout. The TGI with 786-0 renal was 37.8 µM; in the experiment with RPMI-8226 leukemia it was 47.5 µM; with MALME-3M melanoma, above 100 µM.

Take `Cc1cc(C=O)c2c(=O)c3c(O)ccc(/C=C/C(C)C)c3oc2c1`: the TGI was above 100 µM in the experiment with OVCAR-5 ovarian; above 100 µM with TK-10 renal; above 100 µM with A549 NSCLC; 99.6 µM in the experiment with HCT-15 colon; above 100 µM in the experiment on SF-295 CNS; above 100 µM in the experiment with COLO 205 colon. In addition, the TGI in the experiment with HCC-2998 colon is above 100 µM; with MOLT-4 leukemia, 86.5 µM; in the experiment with UACC-257 melanoma, above 100 µM; in the experiment with SNB-19 CNS, above 100 µM; in the experiment on SF-539 CNS, above 100 µM; with NCI-H23 lung, above 100 µM. Further, the TGI was above 100 µM with 786-0 renal, 58.8 µM in the experiment on RPMI-8226 leukemia and above 100 µM in the experiment with MALME-3M melanoma.

On to `O=C(O)c1ccccc1/C=C1\Cc2cc3c(cc2C1=O)CCC3`, for which the TGI in the experiment with OVCAR-5 ovarian is above 100 µM; with TK-10 renal it was 65.8 µM; with A549 NSCLC, above 100 µM; in the experiment on HCT-15 colon, 74.8 µM; in the experiment on SF-295 CNS it was 74.7 µM; in the experiment with COLO 205 colon it was 44.8 µM. In addition, the TGI is 68.3 µM in the experiment with HCC-2998 colon; 46.5 µM in the experiment with MOLT-4 leukemia; 31.4 µM in the experiment with LOX IMVI melanoma; 68.5 µM in the experiment on MCF7 breast; 79.2 µM in the experiment with UACC-257 melanoma; 38.9 µM with MDA-N. Moreover, the TGI is above 100 µM with SNB-19 CNS; 80.4 µM in the experiment on SF-539 CNS; 58.8 µM in the experiment on NCI-H23 lung; 70.5 µM in the experiment with 786-0 renal; 55.2 µM in the experiment with RPMI-8226 leukemia; above 100 µM in the experiment with MALME-3M melanoma.

With `CCCCCCC1OC23OC1CCC2C(O)CCC3O` (stereo unspecified), the TGI in the experiment on OVCAR-5 ovarian, in the experiment with TK-10 renal, in the experiment on HCT-15 colon, with SF-295 CNS, with COLO 205 colon and in the experiment on HCC-2998 colon was above 100 µM throughout. Further, the TGI in the experiment on MOLT-4 leukemia, in the experiment with LOX IMVI melanoma, with MCF7 breast, in the experiment on UACC-257 melanoma, in the experiment on PC-3 prostate and in the experiment with SNB-19 CNS was above 100 µM throughout. Also, the TGI in the experiment with SF-539 CNS, in the experiment on NCI-H23 lung, in the experiment on 786-0 renal, in the experiment with RPMI-8226 leukemia and in the experiment on MALME-3M melanoma was above 100 µM throughout.

As to `CN1S(=O)(=O)N(C)P12(N=P(CP(=NP13(N(C)S(=O)(=O)N1C)N(C)S(=O)(=O)N3C)(c1ccccc1)c1ccccc1)(c1ccccc1)c1ccccc1)N(C)S(=O)(=O)N2C`, the TGI in the experiment with OVCAR-5 ovarian, in the experiment with TK-10 renal, in the experiment on A549 NSCLC, in the experiment with HCT-15 colon, with COLO 205 colon and with HCC-2998 colon was above 100 µM each time. In addition, the TGI with MOLT-4 leukemia, in the experiment on LOX IMVI melanoma, with UACC-257 melanoma, in the experiment with SNB-19 CNS, with SF-539 CNS and with NCI-H23 lung was above 100 µM throughout. Further, the TGI in the experiment with 786-0 renal, in the experiment on RPMI-8226 leukemia and with MALME-3M melanoma was above 100 µM in each case.

In the case of `O=C(NC1CCCCC1)c1n[nH]nc1Cl`, the TGI in the experiment on OVCAR-5 ovarian, in the experiment on TK-10 renal, with A549 NSCLC, in the experiment on HCT-15 colon, in the experiment on SF-295 CNS and in the experiment with COLO 205 colon was above 100 µM in each case. Besides, the TGI in the experiment on HCC-2998 colon, with MOLT-4 leukemia, in the experiment on LOX IMVI melanoma, in the experiment with MCF7 breast, in the experiment with UACC-257 melanoma and in the experiment with PC-3 prostate was above 100 µM throughout. For the same compound, the TGI in the experiment with SNB-19 CNS, in the experiment with SF-539 CNS, in the experiment on NCI-H23 lung and with 786-0 renal was above 100 µM in each case.

The record behind these values is PubChem BioAssay (NCI).
